According to patent US20060063759A1, “Tricyclic steroid hormone nuclear receptor modulators” (priority 2002, published 2006):
pKi: −log10 of the molar value.

Columns and labels:
human MR = molecular target: T1, human MR (Homo sapiens, UniProt P08235); experiment: Mineralocorticoid Receptor Binding Assay ([3H]-aldosterone); settings: [3H]-aldosterone binding, human MR expressed in Sf9 cells; read-out: MR Ki
T1 construct: The full length human MR gene is cloned from a human kidney or human brain cDNA library; His tag from the pAcHLT vector (own knowledge); made in house; host or cells: Sf9 insect cells (baculovirus, pAcHLT transfer vector)
T1 sequence (P08235 1-984): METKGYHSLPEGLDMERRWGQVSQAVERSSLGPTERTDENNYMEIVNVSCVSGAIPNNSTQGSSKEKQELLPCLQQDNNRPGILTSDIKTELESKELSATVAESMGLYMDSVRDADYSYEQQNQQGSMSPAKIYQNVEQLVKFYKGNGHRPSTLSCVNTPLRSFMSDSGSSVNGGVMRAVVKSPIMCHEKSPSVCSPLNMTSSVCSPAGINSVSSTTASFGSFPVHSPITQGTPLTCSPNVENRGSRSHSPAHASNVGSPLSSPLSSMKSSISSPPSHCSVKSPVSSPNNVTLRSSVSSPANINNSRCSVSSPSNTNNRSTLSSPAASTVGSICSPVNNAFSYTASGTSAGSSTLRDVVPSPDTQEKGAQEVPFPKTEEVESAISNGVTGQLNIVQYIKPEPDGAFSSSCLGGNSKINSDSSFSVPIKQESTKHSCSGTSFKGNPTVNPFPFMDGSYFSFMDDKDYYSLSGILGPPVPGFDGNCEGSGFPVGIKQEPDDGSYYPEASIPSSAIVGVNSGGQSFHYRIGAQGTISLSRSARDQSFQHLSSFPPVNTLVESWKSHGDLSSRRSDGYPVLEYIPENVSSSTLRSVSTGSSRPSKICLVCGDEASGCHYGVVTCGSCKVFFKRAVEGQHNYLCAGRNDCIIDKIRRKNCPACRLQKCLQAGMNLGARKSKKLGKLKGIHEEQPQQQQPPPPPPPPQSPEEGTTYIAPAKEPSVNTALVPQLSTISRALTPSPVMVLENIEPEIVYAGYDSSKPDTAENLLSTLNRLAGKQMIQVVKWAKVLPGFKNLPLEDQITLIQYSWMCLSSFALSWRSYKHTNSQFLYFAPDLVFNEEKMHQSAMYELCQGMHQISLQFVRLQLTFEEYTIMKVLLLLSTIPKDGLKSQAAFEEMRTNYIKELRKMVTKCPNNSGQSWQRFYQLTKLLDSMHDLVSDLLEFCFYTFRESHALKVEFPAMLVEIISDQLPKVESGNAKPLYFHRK
Procedure, shortened: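 Lysate supernatant of Sf9 cells expressing full-length human MR (20-25 μg protein) was incubated with 0.5 nM [3H]-aldosterone and test compound in molybdate/Tris/phosphate/glycerol buffer, pH 7.5, ~16 h at 4 °C. Bound ligand was filtered and counted by scintillation; IC50 is the concentration halving [3H]-aldosterone binding.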

glucocorticoid receptor = molecular target: T2, glucocorticoid receptor (Homo sapiens, UniProt P04150); experiment: Glucocorticoid Receptor Binding Assay ([3H]-dexamethasone, A549 cell extract); settings: [3H]-dexamethasone binding, read-out: GR Ki
T2 construct: containing 50-200 ug of A549 cell extract and 1.86 nM [^3H]-dexamethasone; host or cells: A549 human lung epithelial cells (sonicated cell extract)
T2 sequence (P04150 1-777): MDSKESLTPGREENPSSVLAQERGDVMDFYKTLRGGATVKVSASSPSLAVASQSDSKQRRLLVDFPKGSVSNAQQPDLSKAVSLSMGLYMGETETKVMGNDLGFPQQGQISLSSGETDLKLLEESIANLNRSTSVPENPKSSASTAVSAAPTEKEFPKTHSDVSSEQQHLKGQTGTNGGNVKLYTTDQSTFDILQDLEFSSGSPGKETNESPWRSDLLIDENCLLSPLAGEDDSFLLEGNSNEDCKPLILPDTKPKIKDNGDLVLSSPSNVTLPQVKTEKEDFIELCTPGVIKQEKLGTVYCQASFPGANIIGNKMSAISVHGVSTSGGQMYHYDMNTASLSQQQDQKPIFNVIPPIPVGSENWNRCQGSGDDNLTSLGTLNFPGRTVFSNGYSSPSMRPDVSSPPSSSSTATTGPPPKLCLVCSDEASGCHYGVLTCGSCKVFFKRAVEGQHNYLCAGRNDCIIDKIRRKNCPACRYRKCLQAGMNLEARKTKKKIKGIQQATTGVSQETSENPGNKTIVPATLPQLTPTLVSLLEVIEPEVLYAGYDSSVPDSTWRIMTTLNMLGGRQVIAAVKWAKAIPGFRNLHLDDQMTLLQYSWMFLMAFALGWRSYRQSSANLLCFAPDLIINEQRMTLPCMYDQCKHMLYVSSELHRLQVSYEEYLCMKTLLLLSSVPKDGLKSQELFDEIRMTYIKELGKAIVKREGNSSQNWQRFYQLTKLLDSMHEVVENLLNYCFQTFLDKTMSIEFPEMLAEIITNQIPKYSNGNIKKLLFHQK
Procedure, shortened: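 A549 cell extract (50–200 ug) incubated with 1.86 nM [3H]-dexamethasone and test compound for 16 h at 4 °C in Tris-HCl pH 7.2 buffer with glycerol and molybdate. Unbound radioligand removed by dextran-coated charcoal, then supernatant bound counts measured by scintillation.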

A pKi (human MR) greater than 6.30 and a pKi (glucocorticoid receptor) greater than 5.00 were found for O=c1[nH]c2ccc(/C=C3\c4ccc(F)cc4CCc4ncsc43)cc2[nH]1 [Example 565] in this work.
A pKi (human MR) greater than 6.30 and a pKi (glucocorticoid receptor) greater than 6.30 were found for O=S(=O)(Nc1cccc(/C=C2\c3ccccc3CSc3ccccc32)c1)c1ccccc1 [Example 739] in this work.
A pKi (human MR) greater than 6.30 and a pKi (glucocorticoid receptor) greater than 6.00 were found for FC(F)(F)c1cccc(CC2c3ccccc3CCc3ccccc32)c1 [Example 137, 5-(3-Trifluoromethyl-benzyl)-10,11-dihydro-5H-dibenzo[a,d]cycloheptene] in this work.
A pKi (human MR) greater than 6.30 and a pKi (glucocorticoid receptor) greater than 6.30 were found for Cn1c(=O)[nH]c2cc(C=C3c4ccccc4CCc4ccccc43)ccc21 [Example 454] in this work.
A pKi (human MR) greater than 6.30 and a pKi (glucocorticoid receptor) greater than 6.30 were found for O=c1[nH]c2cc(/C=C3/c4ccccc4CCc4cc(F)ccc43)ccc2o1 [Example 450] in this work.
A pKi (human MR) greater than 6.30 and a pKi (glucocorticoid receptor) greater than 6.30 were found for CS(=O)(=O)Nc1cccc(CC2c3ccccc3CCc3cc(Cl)ccc32)c1 (racemic) [Example 207, N-[3-(2-Chloro-10,11-dihydro-5H-dibenzo[a,d]cycloheptenylmethyl)-phenyl]-methanesulfonamide] in this work.
A pKi (human MR) greater than 6.30 and a pKi (glucocorticoid receptor) greater than 5.00 were found for N#Cc1ccc(C=C2c3ccccc3CCc3cc(F)ccc32)cc1F [Example 336] in this work.
A pKi (human MR) greater than 6.30 and a pKi (glucocorticoid receptor) greater than 6.30 were found for CS(=O)(=O)Nc1cccc(/C=C2/c3ccccc3COc3c(Cl)cccc32)c1 [Example 662] in this work.
A pKi (human MR) greater than 6.30 and a pKi (glucocorticoid receptor) greater than 6.30 were found for C/C(=C1\c2ccccc2COc2ccccc21)c1cccc(NS(C)(=O)=O)c1 [Example 795] in this work.
A pKi (human MR) greater than 6.30 and a pKi (glucocorticoid receptor) greater than 5.00 were found for Oc1ccc(/C=C2/c3ccc(F)cc3CCc3ncccc32)cc1 [Example 529] in this work.
A pKi (human MR) greater than 6.30 and a pKi (glucocorticoid receptor) greater than 6.30 were found for Cc1cccc2c1CCc1ccccc1/C2=C\c1ccc(NS(C)(=O)=O)cc1 [Example 316] in this work.
A pKi (human MR) greater than 6.30 and a pKi (glucocorticoid receptor) greater than 6.30 were found for O=c1[nH]c2cc(C=C3c4ccccc4C4CC4c4ccccc43)ccc2s1 (centres unmarked) [Example 605] in this work.
A pKi (human MR) greater than 6.30 and a pKi (glucocorticoid receptor) greater than 6.00 were found for C(=C1c2ccccc2CCc2ccccc21)c1cccc(-c2ccn[nH]2)c1 [Example 229, 5-[3-(10,11-Dihydro-dibenzo[a,d]cyclohepten-5-ylidenemethyl)-phenyl]-1H-pyrazole] in this work.
A pKi (human MR) greater than 6.30 and a pKi (glucocorticoid receptor) greater than 6.30 were found for C/C(=C1/c2ccc(Cl)cc2COc2ccccc21)c1cccc(NS(C)(=O)=O)c1 [Example 797] in this work.
A pKi (human MR) greater than 6.00 and a pKi (glucocorticoid receptor) greater than 5.00 were found for Nc1cccc(C=C2c3ccccc3CCc3ccccc32)n1 [Example 230, 6-(10,11-Dihydro-dibenzo[a,d]cyclohepten-5-ylidenemethyl)-pyridin-2-ylamine] in this work.
A pKi (human MR) greater than 6.30 and a pKi (glucocorticoid receptor) greater than 6.30 were found for CS(=O)(=O)Nc1cccc(C(CO)=C2c3ccccc3CCc3ccccc32)c1 [Example 755, N-{3-[1-(10,11-Dihydro-dibenzo[a,d]cyclohepten-5-ylidene)-2-hydroxy-ethyl]-phenyl}-methanesulfonamide] in this work.
A pKi (human MR) greater than 6.30 and a pKi (glucocorticoid receptor) greater than 6.30 were found for CC(C)CS(=O)(=O)Nc1cccc(C=C2c3ccccc3CCc3ccccc32)c1 [Example 110, 2-Methyl-propane-1-sulfonic acid [3-(10,11-dihydro-dibenzo[a,d]cyclohepten-5-ylidenemethyl)-phenyl]-amide] in this work.
A pKi (human MR) greater than 6.30 and a pKi (glucocorticoid receptor) greater than 6.00 were found for N#CNc1cccc(C=C2c3ccc(F)cc3CCc3cc(F)ccc32)c1 [Example 385] in this work.
A pKi (human MR) greater than 6.30 and a pKi (glucocorticoid receptor) greater than 5.00 were found for O=S(=O)(Nc1cccc(C=C2c3ccccc3CCc3cc(Cl)ccc32)c1)c1ccc(Cl)c(Cl)c1 [Example 294] in this work.
A pKi (human MR) greater than 6.30 and a pKi (glucocorticoid receptor) greater than 6.30 were found for CS(=O)(=O)Nc1cccc(C=C2c3ccccc3CCc3c2ccc(Cl)c3Cl)c1 [197(a), N-[3-(1,2-Dichloro-10,11-dihydro-dibenzo[a,d]cyclohepten-5-ylidenemethyl)-phenyl]-methanesulfonamide] in this work.
A pKi (human MR) greater than 6.30 and a pKi (glucocorticoid receptor) greater than 6.30 were found for CS(=O)(=O)Nc1cccc(/C=C2/c3ccccc3OCc3c(F)cccc32)c1 [Example 731] in this work.
A pKi (human MR) greater than 6.30 and a pKi (glucocorticoid receptor) greater than 6.30 were found for COc1ccc2c(c1)COc1ccccc1/C2=C(\C)c1cccc(NS(C)(=O)=O)c1 [Example 818] in this work.
A pKi (human MR) greater than 6.30 and a pKi (glucocorticoid receptor) greater than 6.00 were found for Fc1ccc2c(c1)CCc1ncccc1/C2=C\c1ccc(C(F)F)cc1 [Example 544] in this work.
A pKi (human MR) greater than 6.30 and a pKi (glucocorticoid receptor) greater than 6.30 were found for CS(=O)(=O)Nc1cccc(C=C2c3ccccc3C3C(c4ccccc42)C3(F)F)c1 (centres unmarked) [Example 255, N-[3-(8,8-Difluoro-4-ylidinemethyl-2,3,5,6-dibenzobicyclo[5.1.0]octane)-phenyl]-methanesulfonamide] in this work.
A pKi (human MR) greater than 6.30 and a pKi (glucocorticoid receptor) greater than 5.00 were found for Cc1ccccc1C=C1c2ccccc2CCc2cc(Cl)ccc21 [Example 175, 2-Chloro-5-(2-methyl-benzylidene)-10,11-dihydro-5H-dibenzo[a,d]cycloheptene] in this work.
A pKi (human MR) greater than 6.30 and a pKi (glucocorticoid receptor) greater than 6.00 were found for CN1C(=O)c2ccccc2C(=Cc2cccc(N)c2)c2ccccc21 [Example 651] in this work.
A pKi (human MR) greater than 6.30 and a pKi (glucocorticoid receptor) greater than 6.30 were found for CCOC(=O)C(=C1c2ccccc2CCc2ccccc21)c1cccc(NS(C)(=O)=O)c1 [Example 753, (10,11-Dihydro-dibenzo[a,d]cyclohepten-5-ylidene)-(3-methanesulfonylamino-phenyl)-acetic acid ethy lester] in this work.
A pKi (human MR) greater than 6.30 and a pKi (glucocorticoid receptor) greater than 6.30 were found for C/C(=C1/c2ccccc2COc2cc(C)ccc21)c1cccc(NS(C)(=O)=O)c1 [Example 786] in this work.
A pKi (human MR) greater than 6.30 and a pKi (glucocorticoid receptor) greater than 6.00 were found for FC(F)c1ccc(C=C2c3ccccc3CCc3ccccc32)cc1 [Example 73, 5-(4-Difluoromethyl-benzylidene)-10,11-dihydro-5H-dibenzo[a,d]cycloheptene] in this work.
A pKi (human MR) greater than 6.30 and a pKi (glucocorticoid receptor) greater than 6.30 were found for CS(=O)(=O)Nc1cccc(C=C2c3ccccc3CCc3c2cccc3-c2ccccc2)c1 [Example 411] in this work.
A pKi (human MR) greater than 6.30 and a pKi (glucocorticoid receptor) greater than 6.30 were found for CS(=O)(=O)Nc1cccc(/C=C2\c3ccccc3CCc3ncccc32)c1 [Example 253, (E)-N-[3-(10,11-Dihydro-benzo[4,5]cyclohepta[1,2-b]pyridin-5-ylidenemethyl)-phenyl]-methanesulfonamide] in this work.
A pKi (human MR) greater than 6.30 and a pKi (glucocorticoid receptor) greater than 5.00 were found for Fc1ccc(/C=C2\c3ccc(F)cc3CCc3ncccc32)cc1 [Example 580] in this work.
A pKi (human MR) greater than 6.30 and a pKi (glucocorticoid receptor) greater than 6.30 were found for COc1ccc2c(c1)SCc1ccccc1/C2=C\c1cccc(NS(C)(=O)=O)c1 [Example 694] in this work.
A pKi (human MR) greater than 6.30 and a pKi (glucocorticoid receptor) greater than 6.30 were found for Fc1cccc2c1CCc1ncccc1C2=Cc1cccc(Cl)c1 [Example 575] in this work.
A pKi (human MR) greater than 6.30 and a pKi (glucocorticoid receptor) greater than 6.30 were found for CS(=O)(=O)Nc1cccc(CC2c3ccc(F)cc3CCc3ncccc32)c1 (centres unmarked) [Example 520] in this work.
A pKi (human MR) greater than 6.30 and a pKi (glucocorticoid receptor) greater than 6.30 were found for CN(C)c1cccc2c1CCc1ccccc1C2=Cc1cccc(NS(C)(=O)=O)c1 [Example 404] in this work.
A pKi (human MR) greater than 6.30 and a pKi (glucocorticoid receptor) greater than 6.30 were found for COc1ccc2c(c1)CCc1cc(C)ccc1/C2=C(/C)c1cccc(NS(C)(=O)=O)c1 [Example 828] in this work.
